Patent US20050014268A1, “Genetic transformation using a PARP inhibitor” (Bayer BioScience NV, priority 1995, published 2005)
Marks after values point to notes of the source that are not given here.

How the values were obtained:
[1] = test system: Brassica napus hypocotyl explants; experiment: Tissue culture of Brassica napus hypocotyl explants on A5 medium containing niacinamide; assay type: cell-based
Procedure: Hypocotyl explants of Brassica napus were obtained, cultured and transformed essentially as described by De Block et al, 1989, Plant Physiol. 914:694-701 except for the following modifications: • hypocotyl explants were precultured for 3 days on A2 medium (MS, 0.5 g/l Mes (pH 5.7), 1.2% glucose, 0.5% agarose, 1 mg/l 2,4-D, 0.25 mg/l naphthalene acetic acid (NAA), 1 mg/l 6-benzylaminopurine (BAP)), […] MS, 0.5 g/l Mes (pH 5.7), 1.2% glucose, 0.1 mg/l NAA, 0.75 mg/l BAP, 0.01 mg/l giberellinic acid (GA3) • selection medium A5 was 0.5 g/l Mes (pH 5.7), 1.2% glucose, 40 mg/l adenine.SO4, 0.5 g/l polyvinyl-polypyrrolidone (PVP), 0.5% agarose, 0.1 mg/l NAA, 0.75 mg/l BAP, 0.01 mg/l GA3, 250 mg/l carbenicillin, 250 mg/l triacillin, 5 mg/l AgNO3. • regeneration medium A6 was MS, 0.5 g/l Mes (pH 5.7), 2% sucrose, 40 mg/l adenine.SO4, 0.5 g/l PVP, 0.5% agarose, 0.0025 mg/l BAP, 250 mg/l triacillin. • healthy shoots were transferred to 1 liter vessels containing rooting medium which was either A8 or A9; A8 consists of 100-130 ml half concentrated MS, 1% sucrose (pH 5.0), 1 mg/l isobutyric acid (IBA), 100 mg/l triacillin added to 300 ml perlite (final pH 6.2); A9 consists of half concentrated MS, 1.5% sucrose (pH 5.8) solidified with agar (0.6%)

[2] = test system: wheat embryogenic callus (variety Pavon); experiment: Transformation of wheat calli with barnase/bar plasmids by particle bombardment, with niacinamide treatment of the calli; assay type: cell-based
Procedure: The Wheat Spring variety Pavon is grown in a greenhouse or conditioned room at 23-24° C. during daytime and 18-20° C. at night, with a photoperiod of 16 hours light and 8 hours dark. Developing seeds (white-greenish with white semi-liquid endosperm) were harvested, sterilized by incubation for 1 minute in 70% ethanol followed by 15 minute incubation in 1.3% NaOCl+0.1% Tween 20, and washed with sterile water. The sterilized seeds were either used directly or were stored for one day at 4-7° C.
Immature embryos of about 1 mm in size were isolated and were placed, with the scutellum upwards, on callus inducing medium W1 (MS medium supplemented with 3% sucrose, 40 mg/l adenine.SO4, 0.5 mg/l thiamine.HCl, 0.5 g/l 2-[N-Morpholino] ethane sulfonic acid (Mes) pH 5.8, 0.5% agarose, 0.5 to 2.5 mg/l CuSO4.5H2O, 25 mg/l acetylsalicylic acid and 2 mg/l 2,4-dichlorophenoxyacetic acid (2,4-D)) and were incubated for 3 weeks at 27° C. in the dark.
Embryogenic sections of the developing callus were isolated, placed on callus maintenance medium W2 (W1 medium but without acetylsalicylic acid and with only 0.5 mg/l CuSO4.5H2O and 1 mg 2,4-D), and incubated for 3 weeks at 24-25° C. in the light (approx. 20 mEinsteins/s/m^2 (with a photoperiod of 16 hours light and 8 hours dark).
About 2 weeks prior to bombardment the calli were cleaned up by removal of non-morphogenic (i.e. the nonembryogenic and nonmeristematic) parts and were subcultured on W2 medium.
For bombardment the calli were divided into small pieces with an average maximum diameter of about 2-3 mm. These pieces were placed at the center of a 9 cm Petridish containing W2 medium in a circle with a diameter of approx. 0.5 cm. […]
Bombardment was carried out using the Biolistic PDS-1000/He apparatus (Bio-Rad). Preparation of the microcarriers ([…]) and the coating of the microcarriers with DNA was essentially carried out according to the manufacturer's instructions. The Petridishes containing the calli were placed at level 2 of the apparatus and the bombardment was done at 1550 psi.
For the transformation experiments the following plasmid DNA was used. • plasmid pVE136, the sequence of which is given in SEQ ID No 4. This plasmid contains the following chimeric genes: • P35S-bar-3′nos • PCA55-barnase-3′nos • in which P35S is the 35S promoter of the Cauliflower, Mosaic virus, bar is a DNA encoding phosphinothricin acetyltransferase (EP 242236), 3′nos is the 3′ untranslated end of the Agrobacterium T-DNA nopaline synthase gene, PCA55 is a stamen-specific promoter from corn gene CA55 (WO 9213957), and barnase is a DNA encoding barnase (Hartley, 1988, J.Mol.Biol.202:913-915) • plasmid pTS172 the sequence of which is given in SEQ ID No 2. This plasmid contains the following chimeric genes: • P35S-bar-3′g7 • PE1-barnase-3′nos • in which in which P35S is the 35S promoter of the Cauliflower Mosaic virus, bar is a DNA encoding phosphinothricin acetyltransferase (EP 242236), 3′g7 is the 3′ untranslated end of the Aqrobacterium T-DNA gene 7, PE1 is a stamen-specific promoter from rice gene E1 (WO 9213956), barnase is a DNA encoding barnase (Hartley, 1988, J.Mol.Biol.202:913-915), and 3′ nos is the 3′ untranslated end of the Agrobacterium T-DNA nopaline synthase gene, • plasmid pTS772 which is identical to pTS172 except that the region between nucleotides 2625-4313 of pTS172, containing PE1, is replaced by the sequence of SEQ ID No 3 containing the PT72 promoter. Thus, plasmid pTS772 contains the following chimeric genes: • P35S-bar-3′g7 • PT72-barnase-3′nos • in which PT72 is a stamen-specific promoter from rice gene T72 (WO 9213956)
The bombarded calli were transferred to selective medium W2 containing 2.5 mg/l phosphinothricin (PPT) and, if neccesary, 100 mg/l niacinamide. The calli that were placed on medium containing niacinamide were transferred after 4 days to niacinamide-free W2 medium containing 2.5 mg/l PPT. The cells were cultured at 24-25° C. […]

[3] = after 4-5 days of incubation with niacinamide
[4] = Plasmid pTS172, Before 250, 125 bombarded calli
[5] = Plasmid pTS772, Before 250, 210 bombarded calli
[6] = Plasmid pTS772, Before/After, 210 bombarded calli

**Q.** Which “anthocyanin production in tissue culture” value ([1]; A5 medium containing 250 mg/l niacinamide) does the source give for `NC(=O)c1cccnc1` [niacinamide] here?
**A.** The value was “no anthocyanin was produced”.

**Q.** What about the “concentration of dehydroascorbate in the explants” value [1, 3] of the same compound?
**A.** Its value is “drastically decreased”.

**Q.** And the “concentration of hydroxyl free radical in the explants” value [1, 3]?
**A.** Its value is “drastically decreased”.

**Q.** And the “percentage of cultured cells in G2 phase of the cell cycle” value ([1]; after a 4 day incubation in niacinamide containing medium, considerably increased)?
**A.** The value was “up to 45 % of all cells in the culture”.

**Q.** What about the “Nr of PPT-resistant calli recovered” value ([2]; Plasmid pTS172, Before 250 (250 mg/l niacinamide for four days prior to bombardment), 125 bombarded calli) of the same compound?
**A.** The value was 30.

**Q.** And the “Nr of MS plants recovered” value [2, 4]?
**A.** Its value is 3^b).

**Q.** What about the “Nr of PPT resistant plants recovered” value [2, 4] of the same compound?
**A.** Its value is 3.

**Q.** And the “appearance of the obtained plants” value ([2]; Plasmid pTS172, Before 250, MS plants)?
**A.** Its value is “^b)The obtained plants looked healthy and tillered vigorously”.

**Q.** And the “Nr of PPT resistant plants recovered” value [2, 5]?
**A.** The value was 7.

**Q.** And the “Nr of PPT-resistant calli recovered” value [2, 5]?
**A.** The value was 75.

**Q.** What about the “Nr of MS plants recovered” value ([2]; Plasmid pTS772, Before 250, 210 bombarded calli, only six plants could be analyzed for MS phenotype) of the same compound?
**A.** Its value is 3^a)b).

**Q.** And the “appearance of the obtained plants” value ([2]; Plasmid pTS772, Before 250 and Before/After, MS plants)?
**A.** The value was “^a)The obtained plants looked healthy and tillered vigorously”.

**Q.** And the “Nr of PPT-resistant calli recovered” value ([2]; Plasmid pTS772, Before/After (250 mg/l four days prior plus 100 mg/l four days after bombardment), 210 bombarded calli)?
**A.** Its value is 45.

**Q.** What about the “Nr of MS plants recovered” value [2, 6] of the same compound?
**A.** The value was 3^a.

**Q.** What about the “Nr of PPT resistant plants recovered” value [2, 6] of the same compound?
**A.** Its value is 6.

**Q.** What about the “Nr of PPT resistant plants recovered” value ([2]; Plasmid pVE136, Before 100 (100 mg/l niacinamide for four days prior to bombardment), 800 bombarded calli) of the same compound?
**A.** The value was 8^a).

**Q.** And the “Nr of MS plants recovered” value ([2]; Plasmid pVE136, Before 100, 800 bombarded calli)?
**A.** The value was 8.

**Q.** What about the “appearance of the obtained plants” value ([2]; Plasmid pVE136, Before 100, PPT resistant plants) of the same compound?
**A.** The value was “^a)The obtained plants looked healthy and tillered vigorously”.

**Q.** What about the “recovery of plants from bombarded calli” value ([2]; Tables 1, 2 and 3, treated versus untreated calli) of the same compound?
**A.** Its value is “obtained only from bombarded calli that were treated with niacinamide”.
